From patent US12551563B2, “ERK5 degraders as therapeutics in cancer and inflammatory diseases” (DANA-FARBER CANCER INSTITUTE, INC., priority 2019, dated 2026)
One block for each compound: values may come before it.

Key:
Type in all cases: cell-based
ERK5 [1] = target: T1, ERK5 (Homo sapiens, UniProt Q13164); assay: Western blot, rescue of compound 7-induced ERK5 degradation by pretreatment in MIA Paca-2 cells; design: immunoblotted with primary antibodies against ERK5 (Cell Signaling®); endogenous in cells; host or cells: MIA PaCa-2; conditions: for Rescue of ERK5 degradation induced by bispecific compound 7: then 1 μM compound 7 for 24 h (FIG. 3)
T1 sequence (Q13164 whole entry): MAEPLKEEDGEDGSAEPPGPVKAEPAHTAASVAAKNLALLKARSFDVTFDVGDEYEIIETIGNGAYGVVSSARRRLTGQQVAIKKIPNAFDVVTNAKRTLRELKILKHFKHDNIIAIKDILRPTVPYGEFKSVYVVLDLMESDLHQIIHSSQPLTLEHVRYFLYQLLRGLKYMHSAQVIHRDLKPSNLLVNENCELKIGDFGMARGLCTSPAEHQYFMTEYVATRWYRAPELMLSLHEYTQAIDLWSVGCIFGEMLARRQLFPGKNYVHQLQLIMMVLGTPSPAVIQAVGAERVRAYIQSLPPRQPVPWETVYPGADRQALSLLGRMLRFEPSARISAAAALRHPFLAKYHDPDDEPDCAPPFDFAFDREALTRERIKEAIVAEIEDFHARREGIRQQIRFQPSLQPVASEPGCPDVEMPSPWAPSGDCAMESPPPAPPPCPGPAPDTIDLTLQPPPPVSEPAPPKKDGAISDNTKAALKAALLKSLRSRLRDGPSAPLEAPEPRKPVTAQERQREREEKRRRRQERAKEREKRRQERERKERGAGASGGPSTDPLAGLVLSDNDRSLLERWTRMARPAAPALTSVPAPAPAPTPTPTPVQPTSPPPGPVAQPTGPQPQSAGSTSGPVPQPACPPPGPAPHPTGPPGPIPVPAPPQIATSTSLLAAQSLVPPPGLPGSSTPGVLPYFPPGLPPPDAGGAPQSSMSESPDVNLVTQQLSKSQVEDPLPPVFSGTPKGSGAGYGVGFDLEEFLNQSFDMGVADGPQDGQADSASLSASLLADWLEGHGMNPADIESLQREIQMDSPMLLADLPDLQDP
Description: (§1) MIA Paca-2 cells were treated with 0, 0.1, 1, or 10 μM of bispecific compounds 3-7 for 24 hours. Cells were then lysed in RIPA buffer (Sigma®) containing protease/phosphatase inhibitor cocktail (Roche®). The protein concentrations were measured by bicinchoninic acid assay (BCA) analysis (Pierce™). Equal amounts of protein were resolved by 4-12% Tris-Base gels (Invitrogen™), and then transferred to the Immuno-Blot PVDF membrane (BioRad), and immunoblotted with primary antibodies against ERK5 (Cell Signaling®) and […] (Cell Signaling®), and then immunoblotted with IRDye®800-labeled goat anti-rabbit IgG and IRDye®800-labeled goat anti-mouse IgG (LI-COR) secondary antibodies. The membranes were detected on Odyssey® CLx system.
MIA Paca-2 cells were pretreated with 10 μM XMD17-109 (the parental compound and known ERK5 inhibitor; available from, e.g., MedChemExpress, Cat. No. HY-15665, Monmouth Junction, N.J.), 10 μM DGY-05-180 (VHL ligand), 0.1 μM Bortezomib (a proteasome inhibitor; available from, e.g., Millipore Sigma, Cat. No. 179324-69-7, Burlington, Mass.), and 1 μM MLN4924 (a neddylation inhibitor; available from, e.g., MedChemExpress, Cat. No. HY-70062, Monmouth Junction, N.J.), for 2 h, and then treated with 1 μM bispecific compound 7 for 24 h. Cells were lysed and immunoblotted as described above with antibodies to ERK5 and GAPDH (Cell Signaling®).

ERK5 [2] = target: T1, ERK5; assay: Western blot of ERK5 degradation in A375 cells; design: immunoblotted with primary antibodies against ERK5 (Cell Signaling®); endogenous in cells; host or cells: A375; conditions: 24 hours, at 1 and 10 μM (FIG. 2)
Description: as §1
A375 cells were treated with 0, 0.1, 1, or 10 μM of bispecific compounds 3, 4, and 7-9 for 24 hours. Cells were lysed and immunoblotted as described above with antibodies to ERK5 and β-Actin.

ERK5 [3] = target: T1, ERK5; assay: Western blot of ERK5 degradation in MIA Paca-2 cells; design: immunoblotted with primary antibodies against ERK5 (Cell Signaling®); endogenous in cells; host or cells: MIA PaCa-2; conditions: 24 hours, at 1 and 10 μM (FIG. 1)
Description: as §1

ERK5 [4] = target: T1, ERK5; assay: Western blot of ERK5 degradation in MOLT4 cells (dose curve); design: immunoblotted with primary antibodies against ERK5 (Cell Signaling®); endogenous in cells; host or cells: MOLT4; conditions: 5 hours, 0.1, 0.25, 0.5, or 1 μM (FIG. 5)
Description: as §1
(§2) MOLT4 cells were treated with 0.1, 0.25, 0.5, or 1 μM of bispecific compounds 18 and 23 for 5 hours. Cells were lysed and immunoblotted as described above with antibodies to ERK5, BRD4, and β-Actin.

BRD4 = target: T2, BRD4 (Homo sapiens, UniProt O60885); assay: Western blot of BRD4 degradation in MOLT4 cells (dose curve); conditions: 5 hours, 0.1, 0.25, 0.5, or 1 μM (FIG. 5)
T2 construct: endogenous in cells; host or cells: MOLT4
Description: as §1, §2

ERK5 [5] = target: T1, ERK5; assay: Western blot of ERK5 degradation in MOLT4 cells (0.1 or 1 μM); design: immunoblotted with primary antibodies against ERK5 (Cell Signaling®); endogenous in cells; host or cells: MOLT4; conditions: 5 hours, at 0.1 and 1 μM (FIG. 4)
Description: as §1
MOLT4 cells were treated with 0.1 or 1 μM of bispecific compounds 15-20 for 5 hours. Cells were lysed and immunoblotted as described above with antibodies to ERK5 and β-Actin.

SMILES: CC(C)C[C@H](NC(=O)[C@H](Cc1ccccc1)NC(=O)c1cnccn1)B(O)O [Bortezomib]
Rescue of ERK5 degradation induced by bispecific compound 7 (ERK5 [1]; pretreated 2 h with 0.1 μM): rescued the ERK5 degradation induced by bispecific compound 7

SMILES: Cc1ncsc1-c1ccc([C@H](C)NC(=O)[C@@H]2C[C@@H](O)CN2C(=O)[C@@H](NC(=O)CCCCCCCNC(=O)c2ccc(Nc3ncc4c(n3)N(C3CCCC3)c3ccccc3C(=O)N4C)cc2)C(C)(C)C)cc1 [compound 7, (2S,4R)-1-((S)-2-(8-(4-((11-cyclopentyl-5-methyl-6-oxo-6,11-dihydro-5H-benzo[e]pyrimido[5,4-b][1,4]diazepin-2-yl)amino)benzamido)octanamido)-3,3-dimethylbutanoyl)-4-hydroxy-N-((S)-1-(4-(4-methylthiazol-5-yl)phenyl)ethyl)pyrrolidine-2-carboxamide]
ERK5 degradation (Western blot) (ERK5 [2]): induced the degradation of ERK5
Dependence of ERK5 degradation (mechanism) (ERK5 [1]; 1 μM for 24 h after pretreatment with competitors/inhibitors (FIG. 3)): both ligand and proteasome dependent
ERK5 degradation (Western blot) (ERK5 [3]): induced the degradation of ERK5

SMILES: NS(=O)(=O)OC[C@@H]1C[C@@H](n2ccc3c(N[C@H]4CCc5ccccc54)ncnc32)C[C@@H]1O [MLN4924]
Rescue of ERK5 degradation induced by bispecific compound 7 (ERK5 [1]; pretreated 2 h with 1 μM): rescued the ERK5 degradation induced by bispecific compound 7

SMILES: CCOc1cc(C(=O)N2CCC(N3CCN(C)CC3)CC2)ccc1Nc1ncc2c(n1)N(C1CCCC1)c1ccccc1C(=O)N2C [XMD17-109]
Rescue of ERK5 degradation induced by bispecific compound 7 (ERK5 [1]; pretreated 2 h with 10 μM): rescued the ERK5 degradation induced by bispecific compound 7

Other lines, results leading:

ERK5 degradation (Western blot) (ERK5 [4]): induced the degradation of ERK5
SMILES: CCC(C)N1c2ccccc2C(=O)N(C)c2cnc(Cc3ccc(C(=O)N4CCN(CCCCCC(=O)N[C@H](C(=O)N5C[C@H](O)C[C@H]5C(=O)N[C@@H](C)c5ccc(-c6scnc6C)cc5)C(C)(C)C)CC4)cc3)nc21 (stereo partly drawn) [compound 23, (2S,4R)-1-((2S)-2-(6-(4-(4-((11-(sec-butyl)-5-methyl-6-oxo-6,11-dihydro-5H-benzo[e]pyrimido[5,4-b][1,4]diazepin-2-yl)methyl)benzoyl)piperazin-1-yl)hexanamido)-3,3-dimethylbutanoyl)-4-hydroxy-N-((S)-1-(4-(4-methylthiazol-5-yl)phenyl)ethyl)pyrrolidine-2-carboxamide]

BRD4 degradation (Western blot) (BRD4): induced the degradation of ERK5 and BRD4
ERK5 degradation (Western blot) (ERK5 [5]): induced the degradation of ERK5
ERK5 degradation (Western blot) (ERK5 [4]): induced the degradation of ERK5
SMILES: Cc1ncsc1-c1ccc([C@H](C)NC(=O)[C@@H]2C[C@@H](O)CN2C(=O)[C@@H](NC(=O)CCCCCN2CCN(C(=O)c3ccc(Nc4ncc5c(n4)N(C4CCCC4)c4ccccc4C(=O)N5C)cc3)CC2)C(C)(C)C)cc1 [compound 18, (2S,4R)-1-((S)-2-(6-(4-(4-((11-cyclopentyl-5-methyl-6-oxo-6,11-dihydro-5H-benzo[e]pyrimido[5,4-b][1,4]diazepin-2-yl)amino)benzoyl)piperazin-1-yl)hexanamido)-3,3-dimethylbutanoyl)-4-hydroxy-N-((S)-1-(4-(4-methylthiazol-5-yl)phenyl)ethyl)pyrrolidine-2-carboxamide]
